This assay has as its target T1, OX2R (Homo sapiens, UniProt O43614).
T1 construct: expressed in transfected cells; host or cells: CHO cells (membranes)
T1 sequence (O43614 1-444): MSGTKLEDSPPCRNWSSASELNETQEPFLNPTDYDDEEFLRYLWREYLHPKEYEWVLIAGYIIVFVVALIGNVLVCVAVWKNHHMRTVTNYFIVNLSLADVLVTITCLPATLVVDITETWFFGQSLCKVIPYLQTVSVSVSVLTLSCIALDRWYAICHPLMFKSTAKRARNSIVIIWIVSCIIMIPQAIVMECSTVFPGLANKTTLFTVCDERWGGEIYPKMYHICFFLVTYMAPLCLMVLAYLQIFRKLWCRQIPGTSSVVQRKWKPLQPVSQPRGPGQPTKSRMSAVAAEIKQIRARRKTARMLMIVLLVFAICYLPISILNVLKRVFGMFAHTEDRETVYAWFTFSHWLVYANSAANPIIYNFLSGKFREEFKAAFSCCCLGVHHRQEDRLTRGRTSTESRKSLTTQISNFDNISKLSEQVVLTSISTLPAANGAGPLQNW
The experiment in a line: radioligand binding assay, OX2 receptor. Particulars: membranes prepared from CHO cells expressing OX2 receptor.

In turn, `CCc1nc(CNC(=O)c2cc(-c3cncc(C)c3)ccc2-c2cnn(C)c2)ccc1OC` [1-17, N-[(6-ethyl-5-methoxypyridin-2-yl)methyl]-2-(1-methyl-1H-pyrazol-4-yl)-5-(5-methylpyridin-3-yl)benzamide] displayed a Ki of 1.3 nM.
With `COc1ccc(CNC(=O)c2cc(-c3cc(Cl)cc(Cl)c3)ccc2-c2cccnc2)cc1OC` [1-6, 3′,5′-dichloro-N-(3,4-dimethoxybenzyl)-4-pyridin-3-ylbiphenyl-3-carboxamide] the figure was 0.12 nM.

What is called Ki is the dissociation constant of the complex between target and ligand, obtained from inhibition or displacement.

The record behind these values is patent US8399494B2, “2,5-disubstituted phenyl carboxamide orexin receptor antagonists” (Merck Sharp & Dohme Corp., priority 2008, dated 2013).
